US5395611A, “Phenolic amine depigmenting and antimelanoma agents” (The Governors of the University of Alberta, priority 1992, dated 1995)
Entries after “also recorded” stand apart in the source; their conditions may differ.

Tests used:
melanoma = conditions: in words; cited from earlier work
follicular melanocytes = conditions: in words; cited from earlier work
[1] = acute toxicity, evaluated 100 to 1600 mg/Kg (Miura et al); cited from earlier work
in vivo = conditions: mouse
Method: 3:1-85 1972. In accordance with this Protocol, ten to fifteen mice were used in each test group. They were weighed and randomized at day one after s.c. inoculation of B16 melanoma cells. From day five, the phenolic melanin precursors were administered i.p. daily for nine days. The test compounds were dissolved in normal saline, and sterilized by heating to 100° C. for 2 minutes. […] They were administered j.p. with the following doses: 400 mg/Kg - 4-S-CAP; 200 to 300 mg/Kg - 4-S-CAP; and 200 to 1200 mg/Kg - N-Ac-4-S-CAP. A catalytic amount of L-dopa, 25 mg/Kg and antidecarboxylase, carbidopa, 400 mg/Kg, were also administered. Carbidopa was given one hour prior to L-dopa administration. DTIC (NSC 4538) was used as a control drug at a dose of 60 mg/Kg. Acute toxicity of 4-S-CP and 4-S-CAP was evaluated from 100 to 1600 mg/Kg.
The B16 mouse melanoma was maintained by s.c. inoculation of tumour cells into the back of C57BL7J mice (5 to 6 weeks, female). […] Briefly, excised tumours were homogenized in normal saline. The homogenized tumour cells were then passed through a sterile 80 mesh stainless steel screen, washed with normal saline, centrifuged (500 g. for 10 minutes) and resuspended in normal saline. Suspensions of viable melanoma cells at the concentration of 1×10^6 per 0.1 ml were inoculated s.c. into both the right and left inguinal areas of C57BL/6J mice (female, 5 to 6 weeks old, 18 to 20 gm).

black hair follicles = assay: Depigmentation of new hair (eumelanin/PTCA content); type: in vivo, C57BL/6J black mice; conditions: for Depigmentation / PTCA Content: 300 mg/kg daily for 14 days, hair day 22; for Depigmentation of new growth of black hair follicles: in words
Method: Female progeny were used in this testing when approximately 8 weeks old and weighing 17 grams.
Thirty mice were randomized into 6 groups of 5 (1 control and 1 for each compound). Starting on day 1, daily for 14 days the agent was injected i.p. or was infiltrated s.c. in an area where hair follicles had been plucked; the dose was 300 mg/kg body weight.
In the same 30 mice, hair follicles were harvested on day 22 (early telogen phase) and their eumelanin content analyzed. […] Briefly, a 10-mg hair sample is homogenized in water at a concentration of 10 mg/ml; the 200-μl homogenate is transferred to a screw-capped test tube, mixed with 1M H2 SO4 (800 μL) and oxidized with 3% KMnO4. The product, pyrrole-2,3,5-tricarboxylic acid (PTCA), is analyzed by HPLC with a UVL detector; samples are measured in duplicate. The eumelanin content is expressed as PTCA (ng/mg) against the PCTA content of BALB/c albino mice as control (≤10 ng/mg, the background value with our method, in which 1 ng corresponds roughly to a eumelanin content of 50 ng), and the degree of depigmentation is expressed as a percentage: (PTCA content of control sample minus PTCA content of experimental sample)/(PCTA content of control sample)×100.

melanocytes = assay: Light and electron microscopy of follicular melanocytes; type: in vivo, mice; conditions: for Cytotoxicity for follicular depigmentation: conclusion in words; for Electron microscopy of melanocytes/melanosomes: 10 days
Method: In […] of 4 mice (1 control and 1 for each compound) were treated daily with the control or compound injected i.p. The compounds tested were 4-S-CAP, N-Ac-4-S-CAP and α-Me-4-S-CAP. Samples of skin and regrowing hair follicles were excised under brief general anaesthesia on day 10 (late anagen phase), fixed in Karnovsky's solution (2.5% glutaraldehyde and 2.5% paraformaldehyde in 011M cacodylate buffer), and refixed in 1% osmium tetroxide in cadodylate buffer. Tissues were stained en bloc with 1.5% uranyl acetate in o.1M veronal buffer for 30 min, dehydrated in graded ethanol solutions, embedded in epoxy resin, and sectioned with a Potter-Blum ultramicrotome MT II. Sections 1.0 μm thick were stained with methylene blue for light microscopy, thin sections were stained with led citrate for electron microscopy.

mushroom tyrosinase = assay: Enzyme kinetics for tyrosinase; type: biochemical; conditions: in words
Method: (§1) Mushroom tyrosinase (400 units/mg) and plasma MAO (1000 units/gm) were obtained from Sigma Chemical Co. (St. Louis, Mo., USA). A reaction mixture consisted of a substrate of 7 to 8 different concentrations (40 to 500 μM for mushroom tyrosinase and 20 to 200 μM for MAO) and of either mushroom tyrosinase (2.5 μg) or MAO (10 μg) in 1.0 mL of 0.05M sodium phosphate buffer, pH 6.8 and 7.4 respectively. The reactions were carried out at 37° C. in a shaking water bath, and stopped by taking 100 μL of the reaction mixture and adding it to 900 μL of 0.4M HCLO4. The disappearance of substrate was followed using HPLC (high pressure liquid chromatography) Km and Vmax values were calculated from the Lineweaver-Burk plots.
^a mushroom tyrosinase; 11 unit/ml of tyrosinase was used. One enzyme
unit will cause an increase in A280 of 0.001 per min at pH 6.8 at
25° C. using Ltyrosine as substrate.

[2] = test system: plasma monoamine oxidase (MAO); assay: Enzyme kinetics for monoamineoxidase (plasma MAO); type: biochemical; conditions: in words
Method: as §1

B16 melanoma = assay: In vivo growth inhibition of s.c. inoculated B16 melanoma; set-up: species or system mouse
Method: Briefly, excised tumours were homogenized in normal saline.
The in vivo antimelanoma effect of the compounds were evaluated by percent growth inhibition of inoculated tumour (% g.i.). The percent g.i. was computed from the mean tumour volume at day 12 or 13 of the experiments; i.e., 100× (1- treated group/control group). Tumour volume was calculated by the following formula:
tumour volume=long axis×(short axis)^2 ×1/2.

B16F10 melanoma colonies = assay: Melanoma-colony formation in the lungs; type: in vivo, mouse
Method: Murine B16F10 melanoma cell line with a strong metastatic property to form tumour colonies in the lungs was obtained from Dr. Longenecker, Department of Immunology, University of Alberta. Such cell line is well recognized and readily available as reported in Miura et al, supra. The cells were grown in T-75 flasks in dulbecco's MEM available from Gipco Lab Inc., Grand Island, N.Y., supplemented with 10% fetal calf serum, also obtained from Gipco, penicillin (100 μ/ml) and streptomycin (100 μg/ml). The cells were incubated at 37° C. in humidified atmosphere of 5% CO2 in air. […] Viable cells were identified by trypan blue dye exclusion and counted. The cell suspension was diluted to the desired concentration. […] On day zero, the mice were inoculated via the lateral tail vein with 5×10^4 cells in 0.2 ml of N saline. The test drugs were dissolved in normal saline, sterilized by membrane filtration, and administered in a dose of 300 mg/Kg (4 -S-CAP) or 900 mg/Kg (N-Ac-4-S-CAP); starting on day five, the control solution or drug was injected i.p. daily for 14 days. On day 26, the mice were killed by cervical dislocation, their lungs were removed, and the number of melanoma colonies was counted under a dissecting microscope. The results were expressed as percentage reduction in the number of colonies: [a-b/a]×100, where a=colonies in control group and b=colonies in experimental group.

[3] = Urinary excretion after i.p. injection (metabolic assay); type: in vivo, mice
Method: Fifteen mice randomly divided into three groups of five were injected i.p. with a test agent (300 mg/kg) dissolved in N saline solution. Group 1 were injected with 4-S-CAP, group 2 with N-Ac-4-S-CAP, group 3 were controls. The mice are kept in metabolic cages; their urine is collected 3, 8 and 24 hr after injection, and the 4-S-CAP and N-Ac-4-S-CAP content is measured by HPLC in a system consisting of a Waters 600E liquid chromatography, with a Bondapak C18 column (3.0×300 mm; particle size, 10 μm) and a Waters 460 electrochemical detector. Mobile phase: 0.1M potassium phosphate buffer, pH 2.1, containing 0.1 mM Na2 EDTA methanol, 80:20 (v/v); column temperature, 60° C.; flow rate 1.0 ml/min. Urine samples are hydrolysed with 0.1M HCl before assay, and the phenols are detected at 850 mV against an Ag/AgCl reference electrode.

[4] = hydroquinone preparations; cited from earlier work
skin = conditions: cited from earlier work

Compound: NC(CSc1ccc(O)cc1)C(=O)O (stereo not drawn) [4-S-CP, 4-S-cysteinylphenol]
- Inhibition of melanoma growth (melanoma): some inhibition of melanoma growth, although not as active as the 4-S-CAP
- Effect on black hair follicles / black hair (follicular melanocytes): depigmentation of black hair as manifested by loss of functioning melanocytes
- Lethal dose [1]: 600 mg/kg

Compound: CC(N)CSc1ccc(O)cc1 (stereo not drawn) [α-Me-4-S-CAP]
- Single dose toxicity level (in vivo): ~500 mg/kg of body weight
- Depigmentation (black hair follicles; i.p., 300 mg/kg): 89%
- Depigmentation of new growth of black hair follicles (black hair follicles): i.p. administration induced more depigmentation than s.c.
- Irritation of the skin (black hair follicles; s.c. administration, plucked area): some irritation of the skin in the plucked area
- Depigmentation (black hair follicles; s.c., 300 mg/kg): 58%
- Cytotoxicity for follicular depigmentation (melanocytes): greatest cytotoxicity for follicular depigmentation
- Electron microscopy of melanocytes/melanosomes (melanocytes; i.p.): contained immature melanosomes at stages II and III

Compound: COC(=O)C(N)CSc1ccc(O)cc1 (stereo not drawn) [methyl ester of 4-S-CP]
- Inhibition of melanoma growth (melanoma): some inhibition of melanoma growth, although not as active as the 4-S-CAP

Compound: NCCCSc1ccc(O)cc1 [4-S-HomoCAP]
- Depigmentation of new growth of black hair follicles (black hair follicles): much more depigmentation when given s.c. than i.p.
- PTCA Content (black hair follicles; s.c.): 397.7 ± 279.3 ng/mg

Compound: CC(=O)NCCSc1ccc(O)cc1 [N-Ac-4-S-CAP, N-ACETYL-4-S-CYSTEAMINYLPHENOL]
- Substrate for tyrosinase (mushroom tyrosinase): tyrosinase substrate
- Substrate for plasma MAO [2]: not, however, a substrate for plasma MAO
- Single dose toxicity level (in vivo): ~1,400 mg/kg of body weight
- LD50 (in vivo; ip): ≤ 1400 mg/kg
- MTD (in vivo; ip): 1200 mg/kg
- % Gi (growth inhibition) (B16 melanoma; Experiment I, 200 mg/Kg): 39.8%
- % Gi (growth inhibition) (B16 melanoma; Experiment I, 400 mg/Kg): 57.3%
- % Gi (growth inhibition) (B16 melanoma; Experiment I, 600 mg/Kg): 63.18%
- % Gi (growth inhibition) (B16 melanoma; Experiment I, 800 mg/Kg): 74.4%
- % Gi (growth inhibition) (B16 melanoma; Experiment II, 200 mg/Kg): 32.0%
- Tumour Volume (B16 melanoma; Experiment II, 200 mg/Kg): 370 ± 37 mm^3
- % Gi (growth inhibition) (B16 melanoma; Experiment II, 400 mg/Kg): 34.0%
- % Gi (growth inhibition) (B16 melanoma; Experiment II, 800 mg/Kg): 63.4%
- % Gi (growth inhibition) (B16 melanoma; Experiment II, 1200 mg/Kg): 70.7%
- Growth inhibition of B16 melanoma (B16 melanoma; in words): dose-dependent linear growth inhibition; also recorded: significant reduction in size of s.c. inoculated melanoma
- Colonies, % control (B16F10 melanoma colonies; 900 mg/kg i.p. daily for 14 days, day 26): 24.9%
- Number of B16F10 melanoma colonies (B16F10 melanoma colonies; in words): significantly reduced
- Melanoma lung colonies reduced to % of original volume (B16F10 melanoma colonies; summary statement): 25%
- Urinary excretion of unchanged compound, amount ([3]; 3 h after i.p. injection, 5.2 mg/mouse, unit printed ng): 7.23e-07 ± 2.7e-08 mg
- Urinary excretion of unchanged compound, amount ([3]; 8 h after i.p. injection, 5.2 mg/mouse): 1.034 ± 0.033 mg
- Urinary excretion of unchanged compound, amount ([3]; 24 h after i.p. injection, 5.2 mg/mouse): 1.089 ± 0.028 mg
- i.p. dose excreted as 4-S-CAP, amount ([3]; urine, i.p. injection): 0.066 ± 0.003 mg
- dose excreted at 3 h ([3]; urine, ip, 300 mg/kg, 3 h after i.p. injection, 5.2 mg/mouse, read-out: Urinary excretion of unchanged compound, % of dose): 13.9%
- dose excreted at 8 h ([3]; urine, ip, 300 mg/kg, 8 h after i.p. injection, 5.2 mg/mouse, read-out: Urinary excretion of unchanged compound, % of dose): 19.8%
- dose excreted at 24 h ([3]; urine, ip, 300 mg/kg, 24 h after i.p. injection, 5.2 mg/mouse, read-out: Urinary excretion of unchanged compound, % of dose): 20.4%
- Depigmentation of new growth of black hair follicles (black hair follicles): most marked; also recorded: no statistically significant difference in melanin content between hair follicles with N-Ac-4-S-CAP and control albino mice
- Cytotoxicity for follicular depigmentation (melanocytes): greatest cytotoxicity for follicular depigmentation
- Electron microscopy of melanocytes/melanosomes (melanocytes; i.p.): no melanocytes or melanosomes were visible
- Light microscopy of hair follicles (melanocytes; i.p., day 10): neither functioning melanocytes nor melanin pigments remained in the follicles

Compound: CN(C)CCSc1ccc(O)cc1 [N,N-DiMe-4-S-CAP]
- Depigmentation (black hair follicles; i.p.): 7.3%
- PTCA Content (black hair follicles; i.p.): 1009.0 ± 193.5 ng/mg
- Depigmentation of new growth of black hair follicles (black hair follicles): the lowest; also recorded: no significant depigmentation
- Depigmentation of new growth of black hair follicles (black hair follicles; listed as N,N-Di-Me-4-S-CAP): no visible changes in pigmentation in new follicles
- Depigmentation (black hair follicles; s.c.): 6.1%
- PTCA Content (black hair follicles; s.c.): 1023.4 ± 110.1 ng/mg

Compound: Oc1ccc(O)cc1 [hydroquinone]
- Stability [4]: very unstable
- Skin irritation (skin; hydroquinone preparations): cause skin irritation
- Permanent whitening of the skin (skin; prolonged period and high concentration): can also cause permanent whitening of the skin
